Test results from patent US7739055B2, “Methods and systems for generating and evaluating peptides” (priority 2005, dated 2010).
≈ marks a conversion by molar mass, not a printed value. Read-outs that look alike come from different tables or passages of the source. Where a SMILES comes first, the peptide text is derived from it.

How the values were obtained:
[1] = first concentration that prohibits growth by OD at 24 hours, Table 1

CC[C@H](C)[C@H](NC(=O)CNC(=O)[C@@H](NC(=O)[C@H](CCCCN)NC(=O)[C@H](CCCCN)NC(=O)[C@H](Cc1ccccc1)NC(=O)[C@H](CC(C)C)NC(=O)[C@H](CCCCN)NC(=O)[C@H](Cc1c[nH]c2ccccc12)NC(=O)[C@@H](N)CCCCN)[C@@H](C)CC)C(=O)NCC(=O)N[C@@H](CCCCN)C(=O)N[C@@H](Cc1ccccc1)C(=O)N[C@@H](CC(C)C)C(=O)N[C@@H](Cc1c[nH]cn1)C(=O)N[C@@H](CO)C(=O)N[C@@H](C)C(=O)N[C@@H](CCCCN)C(=O)N[C@@H](CCCCN)C(=O)N[C@@H](Cc1ccccc1)C(=O)O [Cec A Mag 2] (H-KWKLFKKIGIGKFLHSAKKF-OH; N-terminus and C-terminus assumed)
MIC E. coli (Escherichia coli; [1]): 32 µg/mL (≈ 13.3 µM) | MIC B. cereus (B. cereus): + (key: +: MIC greater than 256 ug/mL; ++: MIC greater than 128 ug/mL, not sufficiently soluble to test as 256 ug/mL)

CC[C@H](C)[C@H](NC(=O)CNC(=O)[C@H](CCC(=O)O)NC(=O)[C@H](CO)NC(=O)[C@@H](NC(=O)[C@H](CCCNC(=N)N)NC(=O)[C@H](CCCCN)NC(=O)[C@H](CCCCN)NC(=O)[C@H](C)NC(=O)[C@H](CO)NC(=O)[C@H](CC(N)=O)NC(=O)[C@H](CCC(=O)O)NC(=O)[C@H](CC(C)C)NC(=O)[C@H](CCCCN)NC(=O)[C@H](CCCCN)NC(=O)[C@H](C)NC(=O)[C@@H](NC(=O)[C@H](CCCCN)NC(=O)[C@H](CO)NC(=O)[C@H](CC(C)C)NC(=O)[C@H](Cc1c[nH]c2ccccc12)NC(=O)[C@@H](N)CO)[C@@H](C)O)[C@@H](C)CC)C(=O)N[C@@H](C)C(=O)N[C@H](C(=O)N[C@@H](C)C(=O)N[C@H](C(=O)N[C@@H](CCC(N)=O)C(=O)NCC(=O)NCC(=O)N1CCC[C@H]1C(=O)N[C@@H](CCCNC(=N)N)C(=O)O)[C@@H](C)CC)[C@@H](C)CC [Cecropin P1] (H-SWLSKTAKKLENSAKKRISEGIAIAIQGGPR-OH; N-terminus and C-terminus assumed)
MIC E. coli (Escherichia coli; [1]): 2 µg/mL (≈ 0.599 µM) | MIC B. cereus (B. cereus): + (key: +: MIC greater than 256 ug/mL; ++: MIC greater than 128 ug/mL, not sufficiently soluble to test as 256 ug/mL)

CC[C@H](C)[C@H](NC(=O)CN)C(=O)NCC(=O)N[C@@H](CCCCN)C(=O)N[C@@H](Cc1ccccc1)C(=O)N[C@@H](CC(C)C)C(=O)N[C@@H](Cc1c[nH]cn1)C(=O)N[C@@H](CO)C(=O)N[C@@H](C)C(=O)N[C@@H](CCCCN)C(=O)N[C@@H](CCCCN)C(=O)N[C@@H](Cc1ccccc1)C(=O)NCC(=O)N[C@@H](CCCCN)C(=O)N[C@@H](C)C(=O)N[C@@H](Cc1ccccc1)C(=O)N[C@H](C(=O)NCC(=O)N[C@@H](CCC(=O)O)C(=O)N[C@H](C(=O)N[C@@H](CCSC)C(=O)N[C@@H](CC(N)=O)C(=O)N[C@@H](CO)C(=O)O)[C@@H](C)CC)C(C)C [Magainin 2] (H-GIGKFLHSAKKFGKAFVGEIMNS-OH; N-terminus and C-terminus assumed)
MIC E. coli (Escherichia coli; 24 h): 64 µg/mL (≈ 25.9 µM) | MIC B. cereus (B. cereus; 24 h): 256 µg/mL (≈ 104 µM)

CC[C@H](C)[C@H](NC(=O)CN)C(=O)NCC(=O)N[C@@H](C)C(=O)N[C@H](C(=O)N[C@@H](CC(C)C)C(=O)N[C@@H](CCCCN)C(=O)N[C@H](C(=O)N[C@@H](CC(C)C)C(=O)N[C@H](C(=O)N[C@H](C(=O)NCC(=O)N[C@@H](CC(C)C)C(=O)N1CCC[C@H]1C(=O)N[C@@H](C)C(=O)N[C@@H](CC(C)C)C(=O)N[C@H](C(=O)N[C@@H](CO)C(=O)N[C@@H](Cc1c[nH]c2ccccc12)C(=O)N[C@H](C(=O)N[C@@H](CCCCN)C(=O)N[C@@H](CCCNC(=N)N)C(=O)N[C@@H](CCCCN)C(=O)N[C@@H](CCCNC(=N)N)C(=O)N[C@@H](CCC(N)=O)C(=O)N[C@@H](CCC(N)=O)C(N)=O)[C@@H](C)CC)[C@@H](C)CC)[C@@H](C)O)[C@@H](C)O)C(C)C)C(C)C [Melittin]
MIC B. cereus (B. cereus; 24 h): 8 µg/mL (≈ 2.81 µM)
